Reference: publication PMC11881559 (Antimicrobial Agents and Chemotherapy, 2025)

What was measured:
[1] = Tolerability and safety assessment (AEs/ADRs, CTCAE 5.0); assay type: in vivo, human
Procedure: Safety and tolerability assessments were conducted for all participants who received at least one dose of RAY1216, either alone or in combination with ritonavir, throughout the study. The safety of all participants was evaluated on the basis of clinical symptoms, vital signs, 12-lead ECG, laboratory tests, physical examinations, and the evaluation of adverse events (AEs). All AEs were documented and graded according to the Common Terminology Criteria for Adverse Events (CTCAE, ver. 5.0). The grading scale was as follows: grade 1 (mild), grade 2 (moderate), grade 3 (severe), grade 4 (life threatening), and grade 5 (death).

[2] = Food-effect study, plasma PK; settings: for AUC0-t / AUC0-∞ / Cmax / MRT0-∞: mean (%CV); for t1/2: mean ± SD
[3] = Food effect, 800 mg, Fast (N = 12)
[4] = Food effect, 800 mg, Fed (N = 12)

SMILES: O=C(NC1CCCC1)C(=O)[C@H](C[C@@H]1CCNC1=O)NC(=O)[C@@H]1[C@H]2CCC[C@H]2CN1C(=O)[C@@H](NC(=O)C(F)(F)F)C1CCCCC1 [RAY1216, leritrelvir]
- participants who experienced at least one adverse event (AE) ([1]; 37 of all 88 participants (RAY1216 or placebo)): 42%
- ADR, n (%) [1, 3]: 2 (16.7) n (%)
- AE, n (%) [1, 3]: 3 (25.0) n (%)
- ALT elevated (ADR) [1, 3]: 0 n (%)
- AST elevated (ADR) [1, 3]: 0 n (%)
- Anemia (ADR) [1, 3]: 0 n (%)
- Bilirubin elevated (ADR) [1, 3]: 0 n (%)
- Diarrhea (ADR) [1, 3]: 0 n (%)
- Fatigue (ADR) [1, 3]: 0 n (%)
- Grade 2 ADRs [1, 3]: 1 (8.3) n (%)
- Grade ≥3 AEs [1, 3]: 0 n (%)
- Hypertriglyceridemia (ADR) [1, 3]: 0 n (%)
- Hyperuricemia (ADR) [1, 3]: 0 n (%)
- Leukopenia (ADR) [1, 3]: 1 (8.3) n (%)
- Nausea (ADR) [1, 3]: 0 n (%)
- Neutrophil decreased (ADR) [1, 3]: 1 (8.3) n (%)
- Palpitations (ADR) [1, 3]: 0 n (%)
- Serum creatinine elevated (ADR) [1, 3]: 0 n (%)
- ADR, n (%) [1, 4]: 4 (33.3) n (%)
- AE, n (%) [1, 4]: 5 (41.7) n (%)
- ALT elevated (ADR) [1, 4]: 0 n (%)
- AST elevated (ADR) [1, 4]: 0 n (%)
- Anemia (ADR) [1, 4]: 0 n (%)
- Bilirubin elevated (ADR) [1, 4]: 0 n (%)
- Diarrhea (ADR) [1, 4]: 0 n (%)
- Fatigue (ADR) [1, 4]: 0 n (%)
- Grade 2 ADRs [1, 4]: 1 (8.3) n (%)
- Grade ≥3 AEs [1, 4]: 0 n (%)
- Hypertriglyceridemia (ADR) [1, 4]: 1 (8.3) n (%)
- Hyperuricemia (ADR) [1, 4]: 0 n (%)
- Leukopenia (ADR) [1, 4]: 0 n (%)
- Nausea (ADR) [1, 4]: 0 n (%)
- Neutrophil decreased (ADR) [1, 4]: 0 n (%)
- Palpitations (ADR) [1, 4]: 0 n (%)
- Serum creatinine elevated (ADR) [1, 4]: 2 (16.7) n (%)
- participants reporting at least one ADR ([1]; MAD study with or without ritonavir, 9 out of 32 participants): 28.1%
- ADR, n (%) ([1]; MAD, 400 mg TID (N = 6)): 2 (33.3) n (%)
- AE, n (%) ([1]; MAD, 400 mg TID (N = 6)): 2 (33.3) n (%)
- ALT elevated (ADR) ([1]; MAD, 400 mg TID (N = 6)): 0 n (%)
- AST elevated (ADR) ([1]; MAD, 400 mg TID (N = 6)): 0 n (%)
- Anemia (ADR) ([1]; MAD, 400 mg TID (N = 6)): 0 n (%)
- Bilirubin elevated (ADR) ([1]; MAD, 400 mg TID (N = 6)): 0 n (%)
- Diarrhea (ADR) ([1]; MAD, 400 mg TID (N = 6)): 0 n (%)
- Fatigue (ADR) ([1]; MAD, 400 mg TID (N = 6)): 0 n (%)
- Grade 2 ADRs ([1]; MAD, 400 mg TID (N = 6)): 0 n (%)
- Grade ≥3 AEs ([1]; MAD, 400 mg TID (N = 6)): 0 n (%)
- Hypertriglyceridemia (ADR) ([1]; MAD, 400 mg TID (N = 6)): 1 (16.7) n (%)
- Hyperuricemia (ADR) ([1]; MAD, 400 mg TID (N = 6)): 0 n (%)
- Leukopenia (ADR) ([1]; MAD, 400 mg TID (N = 6)): 0 n (%)
- Nausea (ADR) ([1]; MAD, 400 mg TID (N = 6)): 0 n (%)
- Neutrophil decreased (ADR) ([1]; MAD, 400 mg TID (N = 6)): 0 n (%)
- Palpitations (ADR) ([1]; MAD, 400 mg TID (N = 6)): 0 n (%)
- Serum creatinine elevated (ADR) ([1]; MAD, 400 mg TID (N = 6)): 0 n (%)
- participants reporting at least one ADR ([1]; MAD, 400 mg TID group, two participants): 33.3%
- participants reporting at least one ADR ([1]; SAD, 200 mg cohort, two participants): 33.3%
- ADR, n (%) ([1]; SAD, 400 mg (N = 6)): 2 (33.3) n (%)
- AE, n (%) ([1]; SAD, 400 mg (N = 6)): 2 (33.3) n (%)
- ALT elevated (ADR) ([1]; SAD, 400 mg (N = 6)): 0 n (%)
- AST elevated (ADR) ([1]; SAD, 400 mg (N = 6)): 0 n (%)
- Anemia (ADR) ([1]; SAD, 400 mg (N = 6)): 0 n (%)
- Bilirubin elevated (ADR) ([1]; SAD, 400 mg (N = 6)): 1 (16.7) n (%)
- Diarrhea (ADR) ([1]; SAD, 400 mg (N = 6)): 0 n (%)
- Fatigue (ADR) ([1]; SAD, 400 mg (N = 6)): 0 n (%)
- Grade 2 ADRs ([1]; SAD, 400 mg (N = 6)): 0 n (%)
- Grade ≥3 AEs ([1]; SAD, 400 mg (N = 6)): 0 n (%)
- Hypertriglyceridemia (ADR) ([1]; SAD, 400 mg (N = 6)): 0 n (%)
- Hyperuricemia (ADR) ([1]; SAD, 400 mg (N = 6)): 0 n (%)
- Leukopenia (ADR) ([1]; SAD, 400 mg (N = 6)): 0 n (%)
- Nausea (ADR) ([1]; SAD, 400 mg (N = 6)): 0 n (%)
- Neutrophil decreased (ADR) ([1]; SAD, 400 mg (N = 6)): 0 n (%)
- Palpitations (ADR) ([1]; SAD, 400 mg (N = 6)): 0 n (%)
- Serum creatinine elevated (ADR) ([1]; SAD, 400 mg (N = 6)): 1 (16.7) n (%)
- participants reporting at least one ADR ([1]; SAD, 400 mg cohort, two participants): 33.3%
- ADR, n (%) ([1]; SAD, 800 mg (N = 6)): 0 n (%)
- AE, n (%) ([1]; SAD, 800 mg (N = 6)): 1 (16.7) n (%)
- ALT elevated (ADR) ([1]; SAD, 800 mg (N = 6)): 0 n (%)
- AST elevated (ADR) ([1]; SAD, 800 mg (N = 6)): 0 n (%)
- Anemia (ADR) ([1]; SAD, 800 mg (N = 6)): 0 n (%)
- Bilirubin elevated (ADR) ([1]; SAD, 800 mg (N = 6)): 0 n (%)
- Diarrhea (ADR) ([1]; SAD, 800 mg (N = 6)): 0 n (%)
- Fatigue (ADR) ([1]; SAD, 800 mg (N = 6)): 0 n (%)
- Grade 2 ADRs ([1]; SAD, 800 mg (N = 6)): 0 n (%)
- Grade ≥3 AEs ([1]; SAD, 800 mg (N = 6)): 0 n (%)
- Hypertriglyceridemia (ADR) ([1]; SAD, 800 mg (N = 6)): 0 n (%)
- Hyperuricemia (ADR) ([1]; SAD, 800 mg (N = 6)): 0 n (%)
- Leukopenia (ADR) ([1]; SAD, 800 mg (N = 6)): 0 n (%)
- Nausea (ADR) ([1]; SAD, 800 mg (N = 6)): 0 n (%)
- Neutrophil decreased (ADR) ([1]; SAD, 800 mg (N = 6)): 0 n (%)
- Palpitations (ADR) ([1]; SAD, 800 mg (N = 6)): 0 n (%)
- Serum creatinine elevated (ADR) ([1]; SAD, 800 mg (N = 6)): 0 n (%)
- ADR, n (%) ([1]; SAD, 1,600 mg (N = 6)): 2 (33.3) n (%)
- AE, n (%) ([1]; SAD, 1,600 mg (N = 6)): 2 (33.3) n (%)
- ALT elevated (ADR) ([1]; SAD, 1,600 mg (N = 6)): 0 n (%)
- AST elevated (ADR) ([1]; SAD, 1,600 mg (N = 6)): 0 n (%)
- Anemia (ADR) ([1]; SAD, 1,600 mg (N = 6)): 0 n (%)
- Bilirubin elevated (ADR) ([1]; SAD, 1,600 mg (N = 6)): 1 (16.7) n (%)
- Diarrhea (ADR) ([1]; SAD, 1,600 mg (N = 6)): 0 n (%)
- Fatigue (ADR) ([1]; SAD, 1,600 mg (N = 6)): 0 n (%)
- Grade 2 ADRs ([1]; SAD, 1,600 mg (N = 6)): 0 (0.0) n (%)
- Grade ≥3 AEs ([1]; SAD, 1,600 mg (N = 6)): 0 n (%)
- Hypertriglyceridemia (ADR) ([1]; SAD, 1,600 mg (N = 6)): 1 (16.7) n (%)
- Hyperuricemia (ADR) ([1]; SAD, 1,600 mg (N = 6)): 1 (16.7) n (%)
- Leukopenia (ADR) ([1]; SAD, 1,600 mg (N = 6)): 0 n (%)
- Nausea (ADR) ([1]; SAD, 1,600 mg (N = 6)): 0 n (%)
- Neutrophil decreased (ADR) ([1]; SAD, 1,600 mg (N = 6)): 0 n (%)
- Palpitations (ADR) ([1]; SAD, 1,600 mg (N = 6)): 0 n (%)
- Serum creatinine elevated (ADR) ([1]; SAD, 1,600 mg (N = 6)): 0 n (%)
- participants reporting at least one ADR ([1]; SAD, 1,600 mg cohort, two participants): 33.3%
- participants reporting at least one ADR ([1]; SAD, 6 out of 32 participants): 18.8%
- ADR, n (%) ([1]; SAD/DDI, 200 mg (N = 6)): 2 (33.3) n (%)
- AE, n (%) ([1]; SAD/DDI, 200 mg (N = 6)): 2 (33.3) n (%)
- ALT elevated (ADR) ([1]; SAD/DDI, 200 mg (N = 6)): 0 n (%)
- AST elevated (ADR) ([1]; SAD/DDI, 200 mg (N = 6)): 0 n (%)
- Anemia (ADR) ([1]; SAD/DDI, 200 mg (N = 6)): 0 n (%)
- Bilirubin elevated (ADR) ([1]; SAD/DDI, 200 mg (N = 6)): 0 n (%)
- Diarrhea (ADR) ([1]; SAD/DDI, 200 mg (N = 6)): 0 n (%)
- Fatigue (ADR) ([1]; SAD/DDI, 200 mg (N = 6)): 0 n (%)
- Grade 2 ADRs ([1]; SAD/DDI, 200 mg (N = 6)): 1 (16.7) n (%)
- Grade ≥3 AEs ([1]; SAD/DDI, 200 mg (N = 6)): 0 n (%)
- Hypertriglyceridemia (ADR) ([1]; SAD/DDI, 200 mg (N = 6)): 2 (33.3) n (%)
- Hyperuricemia (ADR) ([1]; SAD/DDI, 200 mg (N = 6)): 0 n (%)
- Leukopenia (ADR) ([1]; SAD/DDI, 200 mg (N = 6)): 0 n (%)
- Nausea (ADR) ([1]; SAD/DDI, 200 mg (N = 6)): 0 n (%)
- Neutrophil decreased (ADR) ([1]; SAD/DDI, 200 mg (N = 6)): 0 n (%)
- Palpitations (ADR) ([1]; SAD/DDI, 200 mg (N = 6)): 0 n (%)
- Serum creatinine elevated (ADR) ([1]; SAD/DDI, 200 mg (N = 6)): 0 n (%)
- grade 3 or above AEs, withdrawal due to AEs, SAEs ([1]; all cohorts): No grade 3 or above AEs, participant withdrawal due to AEs, or SAEs occurred
- participants reporting at least one ADR ([1]; food-effect study, RAY1216 alone, 5 out of 12 participants): 41.7%
- participants reporting at least one ADR ([1]; food-effect study, RAY1216 alone, after meals, 4 out of 12): 33.3%
- participants reporting at least one ADR ([1]; food-effect study, RAY1216 alone, fasting, 2 out of 12): 16.7%
- Tmax ([2]; 500 mg alongside 100 mg ritonavir, fasting): 2.5 h
- Tmax ([2]; 500 mg alongside 100 mg ritonavir, high-fat food): 3.0 h
- AUC0-t ([2]; 800 mg, Fast): 22,700 (38.9) ng·h/mL
- AUC0-∞ ([2]; 800 mg, Fast): 23,000 (38.9) ng·h/mL
- Cmax ([2]; 800 mg, Fast): 4,760 (31.6) ng/mL
- MRT0-∞ ([2]; 800 mg, Fast): 7.01 (26.4) h
- t1/2 ([2]; 800 mg, Fast): 7.72 ± 4.46 h
- Tmax ([2]; 800 mg, Fast, median (range)): 1.5 (0.5, 3.0) h
- AUC0-t ([2]; 800 mg, Fed): 34,100 (28) ng·h/mL
- AUC0-∞ ([2]; 800 mg, Fed): 34,200 (27.9) ng·h/mL
- Cmax ([2]; 800 mg, Fed): 8,510 (27.6) ng/mL
- MRT0-∞ ([2]; 800 mg, Fed): 5.96 (22.2) h
- t1/2 ([2]; 800 mg, Fed): 7.08 ± 3.61 h
- Tmax ([2]; 800 mg, Fed, median (range)): 3.0 (1.0, 6.0) h
- Tmax delayed by ([2]; 800 mg, feeding vs fasting condition): 1.5 h
